Values joined by “and” are separate entries in the source; they are usually repeats but may differ in a detail not shown here. Equal entries are not always repeated.
Key:
[1] = Crystal; for vapor or sublimation pressure: Calculated from knudsen effusion weight loss; for Normal melting temperature: DTA
[2] = Molar enthalpy of transition or fusion; details: Crystal; DSC

c1ccc(-c2cnc(-c3ccccc3)o2)cc1 [2,5-diphenyloxazole]
[1]
Details | vapor or sublimation pressure
328.18 K | 7.2e-05 kPa
329.28 K | 8.2e-05 kPa and 8.1e-05 kPa
330.3 K | 9.2e-05 kPa and 9.4e-05 kPa
331.19 K | 0.000103 kPa and 0.000104 kPa
332.29 K | 0.000118 kPa and 0.000116 kPa
333.29 K | 0.000133 kPa and 0.000135 kPa
334.19 K | 0.000149 kPa and 0.000148 kPa
335.17 K | 0.000167 kPa and 0.000166 kPa
336.2 K | 0.000189 kPa and 0.000188 kPa
337.18 K | 0.000209 kPa and 0.000212 kPa and 0.000215 kPa
338.17 K | 0.000241 kPa and 0.000237 kPa and 0.000238 kPa
339.29 K | 0.00027 kPa and 0.000269 kPa and 0.000268 kPa
340.25 K | 0.000301 kPa and 0.0003 kPa
341.3 K | 0.00034 kPa and 0.000343 kPa and 0.000342 kPa
342.3 K | 0.000385 kPa and 0.000382 kPa and 0.000384 kPa

Details | Molar enthalpy of transition or fusion [kJ/mol] | Normal melting temperature [°C]
[1] | – | 71.08
[2] | 22.9 | –

O=C1OC(=O)C(c2ccccc2)=C1c1ccccc1 [diphenylmaleic anhydride]
[1]
Details | vapor or sublimation pressure
361.07 K | 0.000112 kPa and 0.000113 kPa and 0.000111 kPa
363.19 K | 0.00014 kPa and 0.000138 kPa
365.3 K | 0.000178 kPa and 0.000175 kPa and 0.000177 kPa
367.1 K | 0.000213 kPa and 0.000215 kPa
369.26 K | 0.000266 kPa and 0.000265 kPa
371.29 K | 0.000335 kPa and 0.000332 kPa and 0.000331 kPa
373.08 K | 0.000392 kPa and 0.000393 kPa and 0.000399 kPa
375.28 K | 0.000492 kPa and 0.000483 kPa and 0.000494 kPa
377.3 K | 0.00061 kPa and 0.0006 kPa and 0.00059 kPa
379.19 K | 0.000733 kPa and 0.000729 kPa and 0.00074 kPa
381.16 K | 0.000894 kPa and 0.000891 kPa and 0.000881 kPa
383.2 K | 0.001108 kPa and 0.001106 kPa and 0.00109 kPa

Details | Molar enthalpy of transition or fusion [kJ/mol] | Normal melting temperature [°C]
[1] | – | 157.52
[2] | 27.3 | –

O=C1C=C(c2ccccc2)C(=O)O1 [phenylmaleic anhydride]
[1]
Details | vapor or sublimation pressure
319.14 K | 0.000102 kPa and 0.0001 kPa
321.22 K | 0.000125 kPa and 0.000126 kPa and 0.00013 kPa
323.2 K | 0.000161 kPa and 0.000164 kPa and 0.000165 kPa
325.15 K | 0.000202 kPa and 0.0002 kPa and 0.000205 kPa
327.17 K | 0.000252 kPa and 0.00025 kPa and 0.000255 kPa
329.3 K | 0.000323 kPa and 0.000321 kPa and 0.000325 kPa
331.18 K | 0.000398 kPa and 0.0004 kPa and 0.000394 kPa
333.2 K | 0.0005 kPa and 0.000496 kPa
335.36 K | 0.000633 kPa and 0.000631 kPa and 0.000637 kPa
337.13 K | 0.000764 kPa and 0.000748 kPa and 0.000772 kPa
339.23 K | 0.000919 kPa and 0.000934 kPa and 0.000926 kPa
341.31 K | 0.001191 kPa and 0.001182 kPa and 0.001186 kPa

Details | Molar enthalpy of transition or fusion [kJ/mol] | Normal melting temperature [°C]
[1] | – | 120.20
[2] | 25.9 | –
